Measurements from PubChem BioAssay (NCI).
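All cell lines were grown in 96-well plates and treated with compound for 48 hours. GI50 marks 50% less growth. The concentration for full growth arrest is given as TGI.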

What was measured:
Assay in all cases: NCI-60 cell line screen, 48 h
CCRF-CEM leukemia = test system: CCRF-CEM leukemia
SNB-75 CNS = test system: SNB-75 CNS
SK-OV-3 ovarian = test system: SK-OV-3 ovarian
A549 NSCLC = test system: A549 NSCLC
SF-295 CNS = test system: SF-295 CNS
SR leukemia = test system: SR leukemia
SK-MEL-28 melanoma = test system: SK-MEL-28 melanoma
HL-60(TB) leukemia = test system: HL-60(TB) leukemia
TK-10 renal = test system: TK-10 renal
HOP-62 NSCLC = test system: HOP-62 NSCLC
OVCAR-4 ovarian = test system: OVCAR-4 ovarian
RPMI-8226 leukemia = test system: RPMI-8226 leukemia
OVCAR-8 ovarian = test system: OVCAR-8 ovarian
M14 melanoma = test system: M14 melanoma
HCT-116 colon = test system: HCT-116 colon
HT29 colon = test system: HT29 colon
SW-620 colon = test system: SW-620 colon
OVCAR-5 ovarian = test system: OVCAR-5 ovarian
EKVX NSCLC = test system: EKVX NSCLC
HCC-2998 colon = test system: HCC-2998 colon
SF-539 CNS = test system: SF-539 CNS
SK-MEL-2 melanoma = test system: SK-MEL-2 melanoma
DU-145 prostate = test system: DU-145 prostate
MDA-MB-231 breast = test system: MDA-MB-231 breast
A498 renal = test system: A498 renal
SK-MEL-5 melanoma = test system: SK-MEL-5 melanoma
RXF 393 renal = test system: RXF 393 renal
KM12 colon = test system: KM12 colon
UO-31 renal = test system: UO-31 renal
UACC-62 melanoma = test system: UACC-62 melanoma
SNB-19 CNS = test system: SNB-19 CNS
IGROV1 ovarian = test system: IGROV1 ovarian
CAKI-1 renal = test system: CAKI-1 renal
HS 578T breast = test system: HS 578T breast
BT-549 breast = test system: BT-549 breast
LOX IMVI melanoma = test system: LOX IMVI melanoma
HOP-92 NSCLC = test system: HOP-92 NSCLC
ACHN renal = test system: ACHN renal
UACC-257 melanoma = test system: UACC-257 melanoma
U251 CNS = test system: U251 CNS
786-0 renal = test system: 786-0 renal
NCI/ADR-RES ovarian = test system: NCI/ADR-RES ovarian
MOLT-4 leukemia = test system: MOLT-4 leukemia
SF-268 CNS = test system: SF-268 CNS
SN12C renal = test system: SN12C renal
PC-3 prostate = test system: PC-3 prostate
NCI-H460 lung = test system: NCI-H460 lung
K-562 leukemia = test system: K-562 leukemia
COLO 205 colon = test system: COLO 205 colon
NCI-H23 lung = test system: NCI-H23 lung
HCT-15 colon = test system: HCT-15 colon

N#Cc1ccc2c(c1)C(=O)c1c-2n(CCCN)c(=O)c2cc([N+](=O)[O-])ccc12
GI50 (CCRF-CEM leukemia): 38 nM | TGI (CCRF-CEM leukemia): 442 nM | GI50 (SNB-75 CNS): 288 nM | TGI (SNB-75 CNS): 1240 nM | GI50 (SK-OV-3 ovarian): 314 nM | TGI (SK-OV-3 ovarian): 1920 nM | GI50 (A549 NSCLC): 223 nM | TGI (A549 NSCLC): 2180 nM | GI50 (SF-295 CNS): 38.2 nM | TGI (SF-295 CNS): 1490 nM | GI50 (SR leukemia): 18.4 nM | TGI (SR leukemia): 1260 nM | GI50 (SK-MEL-28 melanoma): 975 nM | TGI (SK-MEL-28 melanoma): 2590 nM | GI50 (HL-60(TB) leukemia): 1370 nM | TGI (HL-60(TB) leukemia): 3560 nM | GI50 (TK-10 renal): 1740 nM | TGI (TK-10 renal): 3720 nM | GI50 (HOP-62 NSCLC): 259 nM | TGI (HOP-62 NSCLC): 1790 nM | GI50 (OVCAR-4 ovarian): 91.2 nM | TGI (OVCAR-4 ovarian): 257 nM | GI50 (RPMI-8226 leukemia): 99 nM | TGI (RPMI-8226 leukemia): 815 nM | GI50 (OVCAR-8 ovarian): 290 nM | TGI (OVCAR-8 ovarian): 3620 nM | GI50 (M14 melanoma): 467 nM | TGI (M14 melanoma): 2080 nM | GI50 (HCT-116 colon): 199 nM | TGI (HCT-116 colon): 1590 nM | GI50 (HT29 colon): 71.8 nM | TGI (HT29 colon): 562 nM | GI50 (SW-620 colon): 29.1 nM | TGI (SW-620 colon): 568 nM | GI50 (OVCAR-5 ovarian): 705 nM | TGI (OVCAR-5 ovarian): 1860 nM | GI50 (EKVX NSCLC): 537 nM | TGI (EKVX NSCLC): 1930 nM | GI50 (HCC-2998 colon): 101 nM | TGI (HCC-2998 colon): 447 nM | GI50 (SF-539 CNS): 219 nM | TGI (SF-539 CNS): 1310 nM | GI50 (SK-MEL-2 melanoma): 53.4 nM | TGI (SK-MEL-2 melanoma): 1290 nM | GI50 (DU-145 prostate): 110 nM | TGI (DU-145 prostate): 1410 nM | GI50 (MDA-MB-231 breast): 1500 nM | TGI (MDA-MB-231 breast): 3040 nM | GI50 (A498 renal): 1090 nM | TGI (A498 renal): 2440 nM | GI50 (SK-MEL-5 melanoma): 248 nM | TGI (SK-MEL-5 melanoma): 1350 nM | GI50 (RXF 393 renal): 906 nM | TGI (RXF 393 renal): 2220 nM | GI50 (KM12 colon): 1200 nM | TGI (KM12 colon): 3890 nM | GI50 (UO-31 renal): 60.5 nM | TGI (UO-31 renal): 1440 nM | GI50 (UACC-62 melanoma): 109 nM | TGI (UACC-62 melanoma): 1390 nM | GI50 (SNB-19 CNS): 146 nM | TGI (SNB-19 CNS): 1540 nM | GI50 (IGROV1 ovarian): 71.2 nM | TGI (IGROV1 ovarian): 1240 nM | GI50 (CAKI-1 renal): 28.5 nM | TGI (CAKI-1 renal): 1540 nM | GI50 (HS 578T breast): 1410 nM | TGI (HS 578T breast): 3410 nM | GI50 (BT-549 breast): 847 nM | TGI (BT-549 breast): 2290 nM | GI50 (LOX IMVI melanoma): 69.6 nM | TGI (LOX IMVI melanoma): 1080 nM | GI50 (HOP-92 NSCLC): 1080 nM | TGI (HOP-92 NSCLC): 2460 nM | GI50 (ACHN renal): 69.9 nM | TGI (ACHN renal): 1180 nM | GI50 (UACC-257 melanoma): 637 nM | TGI (UACC-257 melanoma): 2430 nM | GI50 (U251 CNS): 71.8 nM | TGI (U251 CNS): 497 nM | GI50 (786-0 renal): 610 nM | TGI (786-0 renal): 2160 nM | GI50 (NCI/ADR-RES ovarian): 359 nM | TGI (NCI/ADR-RES ovarian): 3190 nM | GI50 (MOLT-4 leukemia): 49.2 nM | GI50 (SF-268 CNS): 84.6 nM | TGI (SF-268 CNS): 1510 nM | GI50 (SN12C renal): 261 nM | TGI (SN12C renal): 1820 nM | GI50 (PC-3 prostate): 317 nM | TGI (PC-3 prostate): 1950 nM | GI50 (NCI-H460 lung): 46.2 nM | TGI (NCI-H460 lung): 1140 nM | GI50 (K-562 leukemia): 185 nM | TGI (K-562 leukemia): 3970 nM | GI50 (COLO 205 colon): 518 nM | TGI (COLO 205 colon): 2090 nM | GI50 (NCI-H23 lung): 353 nM | TGI (NCI-H23 lung): 2390 nM | GI50 (HCT-15 colon): 411 nM | TGI (HCT-15 colon): 1830 nM
